Test results taken from the OligoGym collection.
HELM strings list units from the 5' end as sugar, base in round brackets, then linkage (d deoxyribose, r ribose, m 2'-O-methyl, p phosphodiester). Strings are as the collection lists them, not checked against the first reports. ss, as = sense and antisense strand; [fl2r] = 2'-fluoro

details: siRNA
Further: test system not given here.

Question: With “RNA1{[fl2r](A)p.r(G)p.[fl2r](U)p.r(U)p.[fl2r](U)p.r(C)p.[fl2r](U)p.r(A)p.[fl2r](G)p.r(G)p.[fl2r](G)p.[fl2r](C)p.r(C)p.[fl2r](G)p.r(U)p.r(G)p.[fl2r](G)p.r(C)p.r(C)p.r(T)p.r(T)}|RNA2{r(G)p.r(G)p.r(C)p.r(C)p.r(A)p.r(C)p.r(G)p.r(G)p.r(C)p.r(C)p.r(C)p.r(U)p.r(A)p.r(G)p.r(A)p.r(A)p.r(A)p.r(C)p.r(U)p.r(T)p.r(T)}$$$RNA1{StrandType:ss}|RNA2{StrandType:as}$” as the substance, how does the target mRNA knockdown read?
Answer: 75%

Question: Which target mRNA knockdown does the source give for “RNA1{[fl2r](A)p.r(G)p.r(A)p.[fl2r](G)p.r(A)p.[fl2r](A)p.r(G)p.[fl2r](G)p.[fl2r](G)p.r(C)p.r(G)p.[fl2r](U)p.r(C)p.r(U)p.r(C)p.[fl2r](U)p.r(A)p.[fl2r](C)p.r(A)p.r(T)p.r(T)}|RNA2{r(U)p.r(G)p.r(U)p.r(A)p.r(G)p.r(A)p.r(G)p.r(A)p.r(C)p.r(G)p.r(C)p.r(C)p.r(C)p.r(U)p.r(U)p.r(C)p.r(U)p.r(C)p.r(U)p.r(T)p.r(T)}$$$RNA1{StrandType:ss}|RNA2{StrandType:as}$” here?
Answer: 75%

Question: Which target mRNA knockdown does the source give for “RNA1{[fl2r](A)p.r(U)p.[fl2r](C)p.r(G)p.[fl2r](C)p.r(U)p.[fl2r](G)p.r(C)p.[fl2r](U)p.r(C)p.[fl2r](C)p.r(U)p.[fl2r](C)p.r(C)p.[fl2r](U)p.r(C)p.[fl2r](C)p.r(U)p.[fl2r](C)p.r(T)p.r(T)}|RNA2{r(G)p.r(A)p.r(G)p.r(G)p.r(A)p.r(G)p.r(G)p.r(A)p.r(G)p.r(G)p.r(A)p.r(G)p.r(C)p.r(A)p.r(G)p.r(C)p.r(G)p.r(A)p.[fl2r](U)p.r(T)p.r(T)}$$$RNA1{StrandType:ss}|RNA2{StrandType:as}$” here?
Answer: 39%

Question: For “RNA1{[fl2r](A)p.r(U)p.r(C)p.[fl2r](G)p.[fl2r](A)p.r(C)p.r(C)p.r(U)p.[fl2r](G)p.[fl2r](A)p.[fl2r](A)p.[fl2r](G)p.[fl2r](G)p.[fl2r](A)p.[fl2r](G)p.r(U)p.[fl2r](A)p.r(C)p.[fl2r](G)p.r(T)p.r(T)}|RNA2{r(C)p.[fl2r](G)p.r(U)p.[fl2r](A)p.r(C)p.r(U)p.r(C)p.r(C)p.r(U)p.r(U)p.r(C)p.[fl2r](A)p.[fl2r](G)p.[fl2r](G)p.r(U)p.r(C)p.[fl2r](G)p.[fl2r](A)p.r(U)p.r(T)p.r(T)}$$$RNA1{StrandType:ss}|RNA2{StrandType:as}$”, which target mRNA knockdown is on record?
Answer: 21%

Question: With “RNA1{[fl2r](C)p.[fl2r](U)p.r(A)p.[fl2r](G)p.r(A)p.r(G)p.[fl2r](G)p.r(A)p.[fl2r](U)p.[fl2r](C)p.[fl2r](U)p.[fl2r](U)p.r(G)p.r(A)p.[fl2r](A)p.r(G)p.r(A)p.[fl2r](C)p.[fl2r](C)p.r(T)p.r(T)}|RNA2{r(G)p.r(G)p.[fl2r](U)p.[fl2r](C)p.[fl2r](U)p.[fl2r](U)p.[fl2r](C)p.r(A)p.r(A)p.r(G)p.r(A)p.[fl2r](U)p.[fl2r](C)p.[fl2r](C)p.[fl2r](U)p.[fl2r](C)p.[fl2r](U)p.r(A)p.r(G)p.r(T)p.r(T)}$$$RNA1{StrandType:ss}|RNA2{StrandType:as}$” as the substance, how does the target mRNA knockdown read?
Answer: 12%

Question: Which target mRNA knockdown does the source give for “RNA1{[fl2r](C)p.r(A)p.r(G)p.[fl2r](C)p.r(A)p.r(A)p.r(A)p.[fl2r](C)p.[fl2r](C)p.r(A)p.[fl2r](C)p.r(G)p.r(A)p.[fl2r](U)p.[fl2r](C)p.r(A)p.r(A)p.[fl2r](U)p.r(A)p.r(T)p.r(T)}|RNA2{[fl2r](U)p.r(A)p.[fl2r](U)p.[fl2r](U)p.r(G)p.r(A)p.[fl2r](U)p.[fl2r](C)p.r(G)p.[fl2r](U)p.r(G)p.r(G)p.[fl2r](U)p.[fl2r](U)p.[fl2r](U)p.r(G)p.[fl2r](C)p.[fl2r](U)p.r(G)p.r(T)p.r(T)}$$$RNA1{StrandType:ss}|RNA2{StrandType:as}$” here?
Answer: 71%

Question: For “RNA1{[fl2r](C)p.r(A)p.r(G)p.r(A)p.r(G)p.[fl2r](C)p.r(A)p.r(A)p.[fl2r](U)p.[fl2r](U)p.r(G)p.[fl2r](U)p.[fl2r](U)p.[fl2r](U)p.r(A)p.[fl2r](C)p.[fl2r](C)p.[fl2r](U)p.r(A)p.r(T)p.r(T)}|RNA2{[fl2r](U)p.r(A)p.r(G)p.r(G)p.[fl2r](U)p.r(A)p.r(A)p.r(A)p.[fl2r](C)p.r(A)p.r(A)p.[fl2r](U)p.[fl2r](U)p.r(G)p.[fl2r](C)p.[fl2r](U)p.[fl2r](C)p.r(U)p.r(G)p.r(T)p.r(T)}$$$RNA1{StrandType:ss}|RNA2{StrandType:as}$”, which target mRNA knockdown is on record?
Answer: 72%

Question: With “RNA1{[fl2r](C)p.r(C)p.[fl2r](C)p.r(U)p.[fl2r](C)p.r(C)p.[fl2r](C)p.r(C)p.[fl2r](U)p.r(G)p.[fl2r](U)p.r(C)p.[fl2r](C)p.r(C)p.[fl2r](C)p.r(G)p.[fl2r](C)p.r(U)p.[fl2r](U)p.r(T)p.r(T)}|RNA2{[fl2r](A)p.[fl2r](A)p.r(G)p.r(C)p.r(G)p.r(G)p.r(G)p.r(G)p.[fl2r](A)p.r(C)p.[fl2r](A)p.r(G)p.r(G)p.r(G)p.r(G)p.[fl2r](A)p.r(G)p.r(G)p.r(G)p.r(T)p.r(T)}$$$RNA1{StrandType:ss}|RNA2{StrandType:as}$” as the substance, how does the target mRNA knockdown read?
Answer: 41%

Question: For “RNA1{[fl2r](C)p.r(C)p.[fl2r](G)p.r(A)p.[fl2r](A)p.r(G)p.[fl2r](A)p.r(C)p.[fl2r](G)p.r(A)p.[fl2r](A)p.r(G)p.[fl2r](C)p.r(U)p.[fl2r](A)p.r(U)p.[fl2r](G)p.r(A)p.[fl2r](A)p.r(T)p.r(T)}|RNA2{r(U)p.r(U)p.r(C)p.r(A)p.r(U)p.r(A)p.[fl2r](G)p.r(C)p.r(U)p.r(U)p.r(C)p.[fl2r](G)p.r(U)p.r(C)p.r(U)p.r(U)p.r(C)p.[fl2r](G)p.[fl2r](G)p.r(T)p.r(T)}$$$RNA1{StrandType:ss}|RNA2{StrandType:as}$”, which target mRNA knockdown is on record?
Answer: 23%

Question: For “RNA1{[fl2r](C)p.r(G)p.[fl2r](A)p.r(A)p.[fl2r](A)p.r(G)p.[fl2r](U)p.r(G)p.[fl2r](U)p.r(A)p.[fl2r](U)p.r(C)p.[fl2r](C)p.r(G)p.[fl2r](A)p.r(A)p.[fl2r](G)p.r(A)p.[fl2r](C)p.r(T)p.r(T)}|RNA2{[fl2r](G)p.r(U)p.r(C)p.r(U)p.r(U)p.r(C)p.[fl2r](G)p.[fl2r](G)p.r(A)p.r(U)p.r(A)p.r(C)p.r(A)p.r(C)p.r(U)p.r(U)p.r(U)p.r(C)p.[fl2r](G)p.r(T)p.r(T)}$$$RNA1{StrandType:ss}|RNA2{StrandType:as}$”, which target mRNA knockdown is on record?
Answer: 41%

Question: Which target mRNA knockdown does the source give for “RNA1{[fl2r](C)p.r(G)p.[fl2r](A)p.r(C)p.[fl2r](G)p.r(A)p.[fl2r](U)p.r(U)p.[fl2r](C)p.r(U)p.[fl2r](U)p.r(C)p.[fl2r](U)p.r(A)p.[fl2r](C)p.r(U)p.[fl2r](C)p.r(A)p.[fl2r](A)p.r(T)p.r(T)}|RNA2{r(U)p.r(U)p.r(G)p.r(A)p.r(G)p.r(U)p.r(A)p.r(G)p.r(A)p.r(A)p.r(G)p.r(A)p.r(A)p.r(U)p.r(C)p.r(G)p.r(U)p.r(C)p.r(G)p.r(T)p.r(T)}$$$RNA1{StrandType:ss}|RNA2{StrandType:as}$” here?
Answer: 56%

Question: For “RNA1{[fl2r](C)p.r(G)p.[fl2r](G)p.r(G)p.[fl2r](U)p.r(A)p.[fl2r](C)p.r(G)p.[fl2r](A)p.r(G)p.[fl2r](C)p.r(C)p.[fl2r](G)p.r(G)p.[fl2r](A)p.r(A)p.[fl2r](C)p.r(C)p.r(U)p.r(T)p.r(T)}|RNA2{r(A)p.r(G)p.r(G)p.r(U)p.r(U)p.r(C)p.r(C)p.r(G)p.r(G)p.r(C)p.r(U)p.r(C)p.r(G)p.r(U)p.r(A)p.r(C)p.r(C)p.r(C)p.r(G)p.r(T)p.r(T)}$$$RNA1{StrandType:ss}|RNA2{StrandType:as}$”, which target mRNA knockdown is on record?
Answer: 61%

Question: With “RNA1{[fl2r](C)p.r(U)p.[fl2r](A)p.r(G)p.[fl2r](A)p.r(G)p.[fl2r](G)p.r(A)p.[fl2r](U)p.r(C)p.[fl2r](U)p.r(U)p.[fl2r](G)p.r(A)p.[fl2r](A)p.r(G)p.[fl2r](A)p.r(C)p.[fl2r](C)p.r(T)p.r(T)}|RNA2{[fl2r](G)p.[fl2r](G)p.r(U)p.r(C)p.r(U)p.r(U)p.r(C)p.r(A)p.r(A)p.[fl2r](G)p.r(A)p.r(U)p.r(C)p.r(C)p.r(U)p.r(C)p.r(U)p.r(A)p.[fl2r](G)p.r(T)p.r(T)}$$$RNA1{StrandType:ss}|RNA2{StrandType:as}$” as the substance, how does the target mRNA knockdown read?
Answer: 38%

Question: With “RNA1{[fl2r](C)p.r(U)p.[fl2r](A)p.r(G)p.[fl2r](A)p.r(G)p.[fl2r](G)p.r(A)p.[fl2r](U)p.r(C)p.[fl2r](U)p.r(U)p.[fl2r](G)p.r(A)p.[fl2r](A)p.r(G)p.[fl2r](A)p.r(C)p.r(C)p.r(T)p.r(T)}|RNA2{r(G)p.r(G)p.r(U)p.r(C)p.r(U)p.r(U)p.r(C)p.r(A)p.r(A)p.r(G)p.r(A)p.r(U)p.r(C)p.r(C)p.r(U)p.r(C)p.r(U)p.r(A)p.r(G)p.r(T)p.r(T)}$$$RNA1{StrandType:ss}|RNA2{StrandType:as}$” as the substance, how does the target mRNA knockdown read?
Answer: 61%

Question: For “RNA1{[fl2r](C)p.r(U)p.[fl2r](C)p.r(U)p.[fl2r](C)p.r(C)p.[fl2r](U)p.r(A)p.[fl2r](C)p.r(C)p.[fl2r](U)p.r(U)p.[fl2r](C)p.r(U)p.[fl2r](C)p.r(C)p.[fl2r](U)p.r(C)p.[fl2r](U)p.r(T)p.r(T)}|RNA2{r(A)p.r(G)p.r(A)p.r(G)p.r(G)p.r(A)p.r(G)p.r(A)p.r(A)p.r(G)p.r(G)p.r(U)p.r(A)p.r(G)p.r(G)p.r(A)p.r(G)p.r(A)p.r(G)p.r(T)p.r(T)}$$$RNA1{StrandType:ss}|RNA2{StrandType:as}$”, which target mRNA knockdown is on record?
Answer: 69%

Question: With “RNA1{[fl2r](C)p.r(U)p.[fl2r](G)p.r(A)p.[fl2r](C)p.r(C)p.[fl2r](G)p.r(G)p.[fl2r](A)p.r(A)p.[fl2r](G)p.r(C)p.[fl2r](G)p.r(C)p.[fl2r](U)p.r(U)p.[fl2r](A)p.r(A)p.[fl2r](A)p.r(T)p.r(T)}|RNA2{r(U)p.r(U)p.r(U)p.[fl2r](A)p.[fl2r](A)p.r(G)p.r(C)p.r(G)p.r(C)p.r(U)p.r(U)p.r(C)p.r(C)p.r(G)p.r(G)p.r(U)p.r(C)p.[fl2r](A)p.r(G)p.r(T)p.r(T)}$$$RNA1{StrandType:ss}|RNA2{StrandType:as}$” as the substance, how does the target mRNA knockdown read?
Answer: 59%

Question: For “RNA1{[fl2r](G)p.m(A)p.[fl2r](C)p.m(G)p.[fl2r](U)p.m(A)p.[fl2r](A)p.m(A)p.[fl2r](C)p.m(G)p.[fl2r](G)p.m(C)p.[fl2r](C)p.m(A)p.[fl2r](C)p.m(A)p.[fl2r](A)p.m(G)p.[fl2r](U)p.m(U)p.[fl2r](C)}|RNA2{[fl2r](A)p.m(C)p.[fl2r](U)p.m(U)p.[fl2r](G)p.m(U)p.[fl2r](G)p.m(G)p.[fl2r](C)p.m(C)p.[fl2r](G)p.m(U)p.[fl2r](U)p.m(U)p.[fl2r](A)p.m(C)p.[fl2r](G)p.m(U)p.[fl2r](C)p.m(G)p.[fl2r](C)}$$$RNA1{StrandType:ss}|RNA2{StrandType:as}$”, which target mRNA knockdown is on record?
Answer: 23.8%
